The results in this text go back to ChEMBL document CHEMBL5052824, “Novel sesquiterpenoid analogs” (2020).

The test system of test [1] is HeLa. The experiment in a line: Downregulation of DNA ligase 3 expression in POLE3 knocked down human HeLa cells and measured after 6 hrs. The test is classed as functional, cell-based.
For test [2], the target named is T1, DNA polymerase epsilon subunit 3 (Homo sapiens) (UniProt Q9NRF9).
T1 sequence (whole entry): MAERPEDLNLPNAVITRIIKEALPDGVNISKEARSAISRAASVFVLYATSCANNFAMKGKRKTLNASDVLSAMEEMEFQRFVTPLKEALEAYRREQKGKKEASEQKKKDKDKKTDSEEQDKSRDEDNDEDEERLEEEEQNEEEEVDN
Description: Binding affinity towards wild-type POLE3 overexpressed in human 293T cells measured after 1 hr by SDS-PAGE analysis. The test is classed as cell-based. Conditions: HEK293T.

Test [3] is described as follows: Upregulation of POLE expression in POLE3 knocked down human HeLa cells and measured as fold change after 6 hrs. Type of test: functional.
The subject of test [4] is HeLa. The experiment in a line: Induction of DNA damage in human HeLa cells at 30 uM assessed as increase in gamma-H2AX level in presence of 30 uM etoposide and measured by DAPI staining method relative to control. Type of test: functional, cell-based.
The test system of test [5] is HeLa. Description: Downregulation of GEMIN2 expression in POLE3 knocked down human HeLa cells and measured after 6 hrs. Type of test: functional, cell-based.
Test [6] deals with HeLa. Description: Induction of DNA damage in human HeLa cells at 30 uM assessed as increase in gamma-H2AX level and measured by DAPI staining method relative to control. Type of test: functional, cell-based.
Test [7] deals with HeLa. The experiment in a line: Induction of DNA damage in POLE3 knocked down human HeLa cells at 30 uM assessed as increase in gamma-H2AX level in presence of 30 uM etoposide and measured by DAPI staining method relative to control. The test is classed as functional, cell-based.
Test [8] has as its system HeLa. Description: Downregulation of GIT2 expression in POLE3 knocked down human HeLa cells and measured after 6 hrs. Type of test: functional, cell-based.
The test system of test [9] is HeLa. The experiment in a line: Downregulation of PEA15 expression in POLE3 knocked down human HeLa cells and measured after 6 hrs. The test is classed as functional, cell-based.
Test [10] has as its system MDA-MB-231. Description: Binding affinity to cysteine residues of protein in human MDA-MB-231 lysates at 30 uM incubated for 1 hr and measured by SDS-PAGE analysis. The test is classed as subcellular.
The test system of test [11] is MDA-MB-231. The experiment in a line: Binding affinity to cysteine residue of protein in human MDA-MB-231 lysates at 30 uM incubated for 1 hr and measured in presence of cysteine-reactive reagent JW-RF-001 by SDS-PAGE analysis. The test is classed as subcellular.

Activity calls are given as the source filed them. No cut-off for these calls is given here.

`C=C1C[C@@]2(C[C@H](C)[C@H]3CC=C(C)C(=O)[C@@H]3O2)OC1=O`: the result in test [1], in [4], in test [5], in [7], in test [8] and in [9] was Active. The molecule further displayed a Kinact in [2] of 0.27 min⁻¹. Further, the “fold change (FC)” value in test [3] is given as 4. Also, the result in test [6] was inactive.

Take `C=C1C[C@@]2(C[C@H](C)[C@H]3CC=C(CN=[N+]=[N-])C(=O)[C@@H]3O2)OC1=O`: in [10], the result was Active. The outcome in [11] was inactive.

As to `COc1cc([C@@H]2c3cc4c(cc3[C@@H](O[C@@H]3O[C@@H]5CO[C@@H](C)O[C@H]5[C@H](O)[C@H]3O)[C@H]3COC(=O)[C@H]23)OCO4)cc(OC)c1O`, the outcome in test [6] was Active.
